Data set [1] in a line: in vivo. The following applies: New Zealand Albino, rabbit, po, 1.5 mg/kg.
Protocol: (§1) New Zealand Albino rabbits (3.0-4.5 kg) were used in this study. The rabbits were kept at a 12/12 hour light/dark cycle with unlimited food and water supply. […] The rabbits were lightly anesthetized by an intramuscular injection of ketamine and xylazine immediately before dosing. In order to compensate for reduced saliva secretion due to anesthesia, the mouths of the rabbits were wetted with a small amount of distilled water (about 1 mL) before sublingual or buccal administration of the orally dissolving films.
(§2) Blood samples were collected periodically at pre-determined time points for 6 hours.
(§3) The pharmacokinetic studies were conducted by three different routes (i.e. oral, sublingual, and buccal administration), and the data were analyzed non-compartmentally by using WinNonlin (Certara USA, Inc., Princeton, N.J., USA).
For data set [2] the following is noted: ropinirole, cited from earlier work.
The conditions of data set [3]: cited from earlier work.
A short description of data set [4]: In vivo pharmacokinetic study of ropinirole / ROP-ODF. The note with it: New Zealand Albino, rabbit, po, 1.5 mg/kg.
Protocol: as §1, §2, §3

For orientation: AUC(0-inf) means the area under the concentration-time curve extrapolated to infinity. Usually AUC(0-t) stands for exposure summed from dosing to a finite time, without extrapolation to infinity. Higher therefore signals more exposure. The term Cmax denotes the peak of the concentration-time curve. For orientation: half-life means the time needed for the level to fall by half in the phase considered. Low readings indicate rapid decline, high ones slow decline. As usually defined, the Tmax is the time from dosing to the highest level.

Each structure is given as a SMILES string. Read-outs that look alike come from different tables or passages of the source.

Consider `CCCN(CCC)CCc1cccc2c1CC(=O)N2` [ropinirole, Ropinirole], for which, in data set [1], the AUC(0-inf) is 90.5 ng·h/mL, the AUC(0-t) was 65.5 ng·h/mL, the concentration peaked (Cmax) at 29.9 ± 16.2 ng/mL and the half-life was found to be 2.893 ± 0.0183 h. In data set [2] (after oral administration), the Tmax was about 1.5 h. The “oral dose excreted unchanged” value in data set [2] (oral) was 10%. For the same compound, the “protein binding in the plasma” value in data set [3] is 10-39%. For the same compound, the Tmax in data set [4] was 2.38 h.

These data come from US20180000725A1, “ORALLY-DISSOLVING FILMS FOR DRUG DELIVERY THROUGH THE ORAL CAVITY” (The Chinese University of Hong Kong, priority 2016, published 2018).
